From patent publication US9663473B2 (Actelion Pharmaceuticals Ltd, priority 2013, dated 2017)
Counter-ions that a name gives are not always drawn.

What follows are molecules tested against T1, recombinant human ALX receptor (Homo sapiens, UniProt P25090) (assay: Intracellular calcium measurements (FLIPR), ALX receptor agonistic activity). Details: HEK293-hALXR-Gα16 cells, Fluo-4 calcium signal, normalized to WKYMVm 10 nM.
T1 construct: expressed in transfected cells; host or cells: HEK293 (HEK293-hALXR-Gα16)
T1 sequence (P25090 1-351): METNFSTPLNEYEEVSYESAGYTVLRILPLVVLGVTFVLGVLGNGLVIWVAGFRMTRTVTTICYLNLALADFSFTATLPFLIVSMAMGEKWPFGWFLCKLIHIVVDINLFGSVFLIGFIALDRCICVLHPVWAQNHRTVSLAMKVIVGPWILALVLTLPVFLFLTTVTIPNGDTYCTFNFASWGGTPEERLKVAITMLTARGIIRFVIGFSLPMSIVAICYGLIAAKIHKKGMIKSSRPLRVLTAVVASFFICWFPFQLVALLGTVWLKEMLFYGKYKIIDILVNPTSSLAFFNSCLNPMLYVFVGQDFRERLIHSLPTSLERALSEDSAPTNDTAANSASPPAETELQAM
Type: cell-based
How it was run: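 HEK293 cells co-expressing human ALX receptor and Gα16 were loaded with 1 μM Fluo-4 AM for 60 min at 37° C., then exposed to serially diluted compounds on FLIPR Tetra. Peak fluorescence above baseline (ex 488/em 540 nm) was normalized to 10 nM WKYMVm as high control.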

COCCNC(=O)N[C@H](Cc1ccc(OC)cc1)c1nc2ccccc2[nH]1 [Example 59, (R)-1-(1-(1H-Benzo[d]imidazol-2-yl)-2-(4-methoxyphenyl)ethyl)-3-(2-methoxyethyl)urea hydrochloride] and COc1ccc(C[C@@H](NC(=O)NCCC2CCCN2C)c2nc3ccccc3[nH]2)cc1 (stereo partly drawn) [Example 65, 1-((R)-1-(1H-Benzo[d]imidazol-2-yl)-2-(4-methoxyphenyl)ethyl)-3-(2-(1-methylpyrrolidin-2-yl)ethyl)urea dihydrochloride] are within 1.5-fold of each other in EC50: 316 nM for the first, 290 nM for the second.

Compared with COc1ccc(CCNC(=O)N[C@H](Cc2ccc(OC)cc2)c2nc3ccccc3[nH]2)cc1 [Example 54, (R)-1-(1-(1H-Benzo[d]imidazol-2-yl)-2-(4-methoxyphenyl)ethyl)-3-(4-methoxyphenethyl)urea], COc1ccc(C[C@@H](NC(=O)NCCc2ccc(OC)cn2)c2nc3ccccc3[nH]2)cc1 [Example 296, (R)-1-(1-(1H-Benzo[d]imidazol-2-yl)-2-(4-methoxyphenyl)ethyl)-3-(2-(5-methoxypyridin-2-yl)ethyl)urea] is 4.3-fold lower in EC50: 987 nM for the first, 227 nM for the second.

Going from COc1ccc(CC(NC(=O)NC2CC(C)(C)NC(C)(C)C2)c2nc3ccccc3[nH]2)cc1F (stereo not shown) [Example 176, 1-(1-(1H-Benzo[d]imidazol-2-yl)-2-(3-fluoro-4-methoxyphenyl)ethyl)-3-(2,2,6,6-tetramethylpiperidin-4-yl)urea] to COc1ccc(CC(NC(=O)N[C@H]2CC[C@H](O)CC2)c2nc3ccccc3[nH]2)c(F)c1 (single isomer, unassigned; ent-2) [Example 310, 1-(1-(1H-Benzo[d]imidazol-2-yl)-2-(2-fluoro-4-methoxyphenyl)ethyl)-3-(trans-4-hydroxycyclohexyl)urea (ent-2)], the EC50 falls from 58 nM to 3.3 nM (18-fold).

Compared with COc1ccc(C[C@@H](NC(=O)NC2CCN(Cc3ccccc3)C2)c2nc3ccccc3[nH]2)cc1 (stereo partly drawn) [Example 102, 1-((R)-1-(1H-Benzo[d]imidazol-2-yl)-2-(4-methoxyphenyl)ethyl)-3-(1-benzylpyrrolidin-3-yl)urea], COc1ccc(CC(NC(=O)Nc2ccccc2)c2nc3ccccc3[nH]2)cc1 (stereo not shown) [Example 169, 1-(1-(1H-Benzo[d]imidazol-2-yl)-2-(4-methoxyphenyl)ethyl)-3-phenylurea] is 7.4-fold lower in EC50: 376 nM for the first, 51 nM for the second.

Going from COc1ccc(C[C@@H](NC(=O)Nc2cc(C)n(C)n2)c2nc3ccccc3[nH]2)cc1 [Example 7, (R)-1-(1-(1H-Benzo[d]imidazol-2-yl)-2-(4-methoxyphenyl)ethyl)-3-(1,5-dimethyl-1H-pyrazol-3-yl)urea] to COc1ccc(CC(NC(=O)Nc2cc(-c3ccc(Cl)cc3)nn2C)c2nc3ccccc3[nH]2)cc1 (stereo not shown) [Example 403, 1-(1-(1H-Benzo[d]imidazol-2-yl)-2-(4-methoxyphenyl)ethyl)-3-(3-(4-chlorophenyl)-1-methyl-1H-pyrazol-5-yl)urea], the EC50 falls from 315 nM to 118 nM (2.7-fold). The second is the more potent here.

Going from COc1ccc(C[C@@H](NC(=O)NC2(C)COC2)c2nc3ccccc3[nH]2)cc1 [Example 109, (R)-1-(1-(1H-Benzo[d]imidazol-2-yl)-2-(4-methoxyphenyl)ethyl)-3-(3-methyloxetan-3-yl)urea] to COc1ccc(C[C@@H](NC(=O)NC23CCN(CC2)CC3)c2nc3ccccc3[nH]2)cc1 [Example 170, (R)-1-(1-(1H-Benzo[d]imidazol-2-yl)-2-(4-methoxyphenyl)ethyl)-3-(quinuclidin-4-yl)urea], the EC50 falls from 634 nM to 76 nM (8.3-fold). The second is the more potent here.

Going from COc1ccc(C[C@@H](NC(=O)N[C@@H]2CCCC[C@H]2C(N)=O)c2nc3ccccc3[nH]2)cc1 (relative stereo) [Example 163, (1R*,2R*)-2-(3-((R)-1-(1H-Benzo[d]imidazol-2-yl)-2-(4-methoxyphenyl)ethyl)ureido)cyclohexanecarboxamide] to CCOC(=O)[C@@H]1CCCC[C@H]1NC(=O)N[C@H](Cc1ccc(OC)cc1)c1nc2ccccc2[nH]1 (relative stereo) [Example 29, trans-Ethyl 2-(3-((R)-1-(1H-benzo[d]imidazol-2-yl)-2-(4-methoxyphenyl)ethyl)ureido)cyclohexanecarboxylate (ent-1)], the EC50 falls from 120 nM to 56 nM (2.1-fold). The second is the more potent here.

Compared with COc1ccc(C[C@@H](NC(=O)N[C@H]2CC[C@@H](O)CC2)c2nc3ccccc3[nH]2)cc1 [Example 183, 1-((R)-1-(1H-Benzo[d]imidazol-2-yl)-2-(4-methoxyphenyl)ethyl)-3-(cis-4-hydroxycyclohexyl)urea], COc1ccc(C[C@@H](NC(=O)N[C@H]2CC[C@H](O)CC2)c2nc3cc(C)ccc3[nH]2)cc1 [Example 83, 1-(trans-4-Hydroxycyclohexyl)-3-((R)-2-(4-methoxyphenyl)-1-(5-methyl-1H-benzo[d]imidazol-2-yl)ethyl)urea] is 34-fold lower in EC50: 58 nM for the first, 1.7 nM for the second. The second is the more potent here.

Going from COc1ccc(CC(NC(=O)Nc2ccnn2-c2cccc(OC)c2)c2nc3ccccc3[nH]2)cc1 (stereo not shown) [Example 419, 1-(1-(1H-benzo[d]imidazol-2-yl)-2-(4-methoxyphenyl)ethyl)-3-(1-(3-methoxyphenyl)-1H-pyrazol-5-yl)urea] to COc1ccc(CC(NC(=O)Nc2ccnn2-c2ccncc2)c2nc3ccccc3[nH]2)cc1 (stereo not shown) [Example 409, 1-(1-(1H-benzo[d]imidazol-2-yl)-2-(4-methoxyphenyl)ethyl)-3-(1-(pyridin-4-yl)-1H-pyrazol-5-yl)urea], the EC50 rises from 56 nM to 362 nM (6.5-fold). The first is the more potent here.

Going from COc1ccc(C[C@@H](NC(=O)NC2(c3ccc(Cl)cc3)CC2)c2nc3ccccc3[nH]2)cc1 [Example 355, (R)-1-(1-(1H-Benzo[d]imidazol-2-yl)-2-(4-methoxyphenyl)ethyl)-3-(1-(4-chlorophenyl)cyclopropyl)urea] to COc1ccc(C[C@@H](NC(=O)NC2CCCc3ccccc32)c2nc3ccccc3[nH]2)cc1 (stereo partly drawn) [Example 27, 1-((R)-1-(1H-Benzo[d]imidazol-2-yl)-2-(4-methoxyphenyl)ethyl)-3-(1,2,3,4-tetrahydronaphthalen-1-yl)urea], the EC50 falls from 157 nM to 26 nM (6-fold). The second is the more potent here.

Going from O=C(N[C@H](Cc1ccc(C(F)(F)F)cc1)c1nc2ccccc2[nH]1)N[C@H]1CC[C@H](O)CC1 [Example 190, 1-((R)-1-(1H-Benzo[d]imidazol-2-yl)-2-(4-(trifluoromethyl)phenyl)ethyl)-3-(trans-4-hydroxycyclohexyl)urea] to CC(F)(F)c1ccc(CC(NC(=O)N[C@H]2CC[C@H](O)CC2)c2nc3ccccc3[nH]2)cc1 (relative stereo) [Example 393, 1-(1-(1H-Benzo[d]imidazol-2-yl)-2-(4-(1,1-difluoroethyl)phenyl)ethyl)-3-(trans-4-hydroxycyclohexyl)urea], the EC50 falls from 19 nM to 3.9 nM (4.9-fold).

Compared with COc1ccc(CC(NC(=O)N[C@H]2CC[C@H](O)CC2)c2nc3ncncc3[nH]2)cc1 (relative stereo) [Example 426, 1-(trans-4-hydroxycyclohexyl)-3-(2-(4-methoxyphenyl)-1-(7H-purin-8-yl)ethyl)urea], COc1cc(F)c(CC(NC(=O)N[C@H]2CC[C@H](O)CC2)c2nc3ccccc3[nH]2)c(F)c1 (relative stereo) [Example 235, 1-(1-(1H-Benzo[d]imidazol-2-yl)-2-(2,6-difluoro-4-methoxyphenyl)ethyl)-3-(trans-4-hydroxycyclohexyl)urea] is 120-fold lower in EC50: 374 nM for the first, 3.2 nM for the second.

Compared with COc1ccc(C[C@@H](NC(=O)NCC2CCN(C(=O)OC(C)(C)C)CC2)c2nc3ccccc3[nH]2)cc1 [Example 146, (R)-tert-Butyl 4-((3-(1-(1H-benzo[d]imidazol-2-yl)-2-(4-methoxyphenyl)ethyl)ureido)methyl)piperidine-1-carboxylate], COc1ccc(C[C@@H](NC(=O)NCc2cccnc2N2CCOCC2)c2nc3ccccc3[nH]2)cc1 [Example 206, (R)-1-(1-(1H-Benzo[d]imidazol-2-yl)-2-(4-methoxyphenyl)ethyl)-3-((2-morpholinopyridin-3-yl)methyl)urea] is 3.6-fold lower in EC50: 512 nM for the first, 144 nM for the second.

Going from CCC[C@@H](NC(=O)N[C@H](Cc1ccc(OC)cc1)c1nc2ccccc2[nH]1)c1ccccc1 [Example 335, 1-((R)-1-(1H-Benzo[d]imidazol-2-yl)-2-(4-methoxyphenyl)ethyl)-3-((R)-1-phenylbutyl)urea] to COc1ccc(C[C@@H](NC(=O)NCc2cccc(OC)c2)c2nc3ccccc3[nH]2)cc1 [Example 5, (R)-1-(1-(1H-Benzo[d]imidazol-2-yl)-2-(4-methoxyphenyl)ethyl)-3-(3-methoxybenzyl)urea], the EC50 rises from 372 nM to 602 nM (1.6-fold).

First: O=C(NC(Cc1ccc(C(F)(F)F)cc1F)c1nc2cc(F)ccc2[nH]1)N[C@H]1CC[C@H](O)CC1 (single isomer, unassigned; ent-1) [Example 363, 1-(1-(5-Fluoro-1H-benzo[d]imidazol-2-yl)-2-(2-fluoro-4-(trifluoromethyl)phenyl)ethyl)-3-(trans-4-hydroxycyclohexyl)urea (ent-1)]
Second: COc1cc(F)c(CC(NC(=O)NC23CCC(O)(CC2)CC3)c2nc3ccccc3[nH]2)c(F)c1 (single isomer, unassigned; ent-1) [Example 259, 1-(1-(1H-Benzo[d]imidazol-2-yl)-2-(2,6-difluoro-4-methoxyphenyl)ethyl)-3-(4-hydroxybicyclo[2.2.2]octan-1-yl)urea (ent-1)]
The EC50 of the first is 11-fold higher: 5.6 nM for the first, 0.5 nM for the second. The second is the more potent here.

COc1ccc(C[C@@H](NC(=O)NCCc2ccc3c(c2)OCO3)c2nc3ccccc3[nH]2)cc1 [Example 299, (R)-1-(1-(1H-Benzo[d]imidazol-2-yl)-2-(4-methoxyphenyl)ethyl)-3-(2-(benzo[d][1,3]dioxol-5-yl)ethyl)urea] showed an EC50 of 167 nM.
